Results reported in ChEMBL document CHEMBL3217491, “Design, synthesis and biological evaluation of imidazopyridine/pyrimidine-chalcone derivatives as potential anticancer agents” (2010).
Active and inactive are the calls of the source. The rule behind the calls is not given here.

Columns and labels:
[1] = tested on: PC-3; experiment: Growth inhibition of human PC3 cells after 48 hrs by SRB assay; format: functional; conditions: PC-3, 48 h
[2] = tested on: DU-145; experiment: Growth inhibition of human DU145 cells after 48 hrs by SRB assay; format: functional; conditions: DU-145, 48 h
[3] = tested on: MCF7; experiment: Growth inhibition of human MCF7 cells after 48 hrs by SRB assay; format: functional; conditions: MCF7, 48 h
[4] = tested on: MDA-MB-231; experiment: Growth inhibition of human MDA-MB-231 cells after 48 hrs by SRB assay; format: functional; conditions: MDA-MB-231, 48 h
[5] = Growth inhibition of human Hs578T cells after 48 hrs by SRB assay; format: functional; conditions: Hs-578T
[6] = Growth inhibition of human BT549 cells after 48 hrs by SRB assay; format: functional; conditions: BT-549, 48 h
[7] = tested on: T47D; experiment: Growth inhibition of human T47D cells after 48 hrs by SRB assay; format: functional
[8] = tested on: MDA-MB-468; experiment: Growth inhibition of human MDA-MB-468 cells after 48 hrs by SRB assay; format: functional; conditions: MDA-MB-468, 48 h
[9] = Growth inhibition of human LOXIMVI cells after 48 hrs by SRB assay; format: functional; conditions: LOX IMVI
[10] = tested on: Malme-3M; experiment: Growth inhibition of human MALME-3M cells after 48 hrs by SRB assay; format: functional
[11] = tested on: M14; experiment: Growth inhibition of human M14 cells after 48 hrs by SRB assay; format: functional; conditions: M14, 48 h
[12] = tested on: MDA-MB-435; experiment: Growth inhibition of human MDA-MB-435 cells after 48 hrs by SRB assay; format: functional; conditions: MDA-MB-435, 48 h
[13] = tested on: SK-MEL-2; experiment: Growth inhibition of human SK-MEL-2 cells after 48 hrs by SRB assay; format: functional; conditions: SK-MEL-2, 48 h
[14] = tested on: SK-MEL-28; experiment: Growth inhibition of human SK-MEL-28 cells after 48 hrs by SRB assay; format: functional; conditions: SK-MEL-28, 48 h
[15] = tested on: SK-MEL-5; experiment: Growth inhibition of human SK-MEL-5 cells after 48 hrs by SRB assay; format: functional; conditions: SK-MEL-5, 48 h
[16] = Growth inhibition of human UACC62 cells after 48 hrs by SRB assay; format: functional; conditions: UACC-62, 48 h
[17] = Growth inhibition of human UACC257 cells after 48 hrs by SRB assay; format: functional; conditions: UACC-257, 48 h
[18] = tested on: MCF7; experiment: Growth inhibition of human MCF7 cells assessed as cell viability at 4 uM after 24 hrs by MTT assay; format: functional, cell-based
[19] = tested on: MCF7; experiment: Cell cycle arrest in human MCF7 cells assessed as accumulation at G0/G1 phase at 4 uM after 24 hrs by propidium iodide staining-based flow cytometry (reference value: 64.04%); format: functional
[20] = tested on: MCF7; experiment: Cell cycle arrest in human MCF7 cells assessed as accumulation at S phase at 4 uM after 24 hrs by propidium iodide staining-based flow cytometry (reference value: 20.17%); format: functional
[21] = tested on: MCF7; experiment: Cell cycle arrest in human MCF7 cells assessed as accumulation at G2/M phase at 4 uM after 24 hrs by propidium iodide staining-based flow cytometry (reference value: 15.79%); format: functional
[22] = tested on: CCRF-CEM; experiment: Growth inhibition of human CCRF-CEM cells after 48 hrs by SRB assay; format: functional
[23] = tested on: HL-60(TB); experiment: Growth inhibition of human HL-60(TB) cells after 48 hrs by SRB assay; format: functional; conditions: HL-60, 48 h
[24] = tested on: K562; experiment: Growth inhibition of human K562 cells after 48 hrs by SRB assay; format: functional; conditions: K562, 48 h
[25] = Growth inhibition of human MOLT4 cells after 48 hrs by SRB assay; format: functional; conditions: MOLT-4, 48 h
[26] = tested on: SR; experiment: Growth inhibition of human SR cells after 48 hrs by SRB assay; format: functional
[27] = tested on: RPMI-8226; experiment: Growth inhibition of human RPMI8226 cells after 48 hrs by SRB assay; format: functional; conditions: RPMI-8226, 48 h
[28] = tested on: A549; experiment: Growth inhibition of human A549 cells after 48 hrs by SRB assay; format: functional; conditions: A549, 48 h
[29] = Growth inhibition of human EKVX cells after 48 hrs by SRB assay; format: functional
[30] = tested on: HOP-62; experiment: Growth inhibition of human HOP62 cells after 48 hrs by SRB assay; format: functional; conditions: HOP-62, 48 h
[31] = Growth inhibition of human HOP92 cells after 48 hrs by SRB assay; format: functional; conditions: HOP-92, 48 h
[32] = tested on: NCI-H226; experiment: Growth inhibition of human NCI-H226 cells after 48 hrs by SRB assay; format: functional; conditions: NCI-H226, 48 h
[33] = tested on: NCI-H23; experiment: Growth inhibition of human NCI-H23 cells after 48 hrs by SRB assay; format: functional; conditions: NCI-H23, 48 h
[34] = tested on: NCI-H322M; experiment: Growth inhibition of human NCI-H322M cells after 48 hrs by SRB assay; format: functional
[35] = tested on: NCI-H460; experiment: Growth inhibition of human NCI-H460 cells after 48 hrs by SRB assay; format: functional; conditions: NCI-H460, 48 h
[36] = tested on: NCI-H522; experiment: Growth inhibition of human NCI-H522 cells after 48 hrs by SRB assay; format: functional; conditions: NCI-H522, 48 h
[37] = tested on: COLO 205; experiment: Growth inhibition of human COLO205 cells after 48 hrs by SRB assay; format: functional; conditions: COLO 205, 48 h
[38] = Growth inhibition of human HCC2998 cells after 48 hrs by SRB assay; format: functional; conditions: HCC 2998, 48 h
[39] = tested on: HCT-116; experiment: Growth inhibition of human HCT116 cells after 48 hrs by SRB assay; format: functional; conditions: HCT-116, 48 h
[40] = Growth inhibition of human HCT15 cells after 48 hrs by SRB assay; format: functional; conditions: HCT-15, 48 h
[41] = tested on: HT-29; experiment: Growth inhibition of human HT-29 cells after 48 hrs by SRB assay; format: functional; conditions: HT-29, 48 h
[42] = tested on: KM12; experiment: Growth inhibition of human KM12 cells after 48 hrs by SRB assay; format: functional; conditions: KM12, 48 h
[43] = tested on: SW-620; experiment: Growth inhibition of human SW620 cells after 48 hrs by SRB assay; format: functional; conditions: SW-620, 48 h
[44] = tested on: SF-268; experiment: Growth inhibition of human SF268 cells after 48 hrs by SRB assay; format: functional; conditions: SF-268, 48 h
[45] = Growth inhibition of human SF295 cells after 48 hrs by SRB assay; format: functional; conditions: SF-295, 48 h
[46] = Growth inhibition of human SF539 cells after 48 hrs by SRB assay; format: functional; conditions: SF-539, 48 h
[47] = tested on: SNB-19; experiment: Growth inhibition of human SNB19 cells after 48 hrs by SRB assay; format: functional; conditions: SNB-19, 48 h
[48] = tested on: SNB-75; experiment: Growth inhibition of human SNB75 cells after 48 hrs by SRB assay; format: functional; conditions: SNB-75, 48 h
[49] = tested on: U-251; experiment: Growth inhibition of human U251 cells after 48 hrs by SRB assay; format: functional; conditions: U-251, 48 h
[50] = tested on: IGROV-1; experiment: Growth inhibition of human IGROV1 cells after 48 hrs by SRB assay; format: functional; conditions: IGROV-1, 48 h
[51] = Growth inhibition of human OVCAR3 cells after 48 hrs by SRB assay; format: functional; conditions: OVCAR-3, 48 h
[52] = Growth inhibition of human OVCAR4 cells after 48 hrs by SRB assay; format: functional; conditions: OVCAR-4, 48 h
[53] = Growth inhibition of human OVCAR5 cells after 48 hrs by SRB assay; format: functional; conditions: OVCAR-5, 48 h
[54] = Growth inhibition of human OVCAR8 cells after 48 hrs by SRB assay; format: functional; conditions: OVCAR-8, 48 h
[55] = Growth inhibition of human NCI-ADR-RES cells after 48 hrs by SRB assay; format: functional
[56] = tested on: SK-OV-3; experiment: Growth inhibition of human SKOV3 cells after 48 hrs by SRB assay; format: functional; conditions: SK-OV-3, 48 h
[57] = tested on: 786-0; experiment: Growth inhibition of human 786-0 cells after 48 hrs by SRB assay; format: functional; conditions: 786-0, 48 h
[58] = tested on: A498; experiment: Growth inhibition of human A498 cells after 48 hrs by SRB assay; format: functional; conditions: A498, 48 h
[59] = tested on: ACHN; experiment: Growth inhibition of human ACHN cells after 48 hrs by SRB assay; format: functional
[60] = tested on: CAKI-1; experiment: Growth inhibition of human Caki1 cells after 48 hrs by SRB assay; format: functional; conditions: CAKI-1, 48 h
[61] = Growth inhibition of human RXF393 cells after 48 hrs by SRB assay; format: functional; conditions: RXF 393, 48 h
[62] = tested on: SN12C; experiment: Growth inhibition of human SN12C cells after 48 hrs by SRB assay; format: functional
[63] = tested on: TK-10; experiment: Growth inhibition of human TK10 cells after 48 hrs by SRB assay; format: functional; conditions: TK-10, 48 h
[64] = Growth inhibition of human UO31 cells after 48 hrs by SRB assay; format: functional; conditions: UO-31, 48 h

Question: What does the source list for `COc1cc(C(=O)/C=C/c2c(-c3ccc(F)cc3)nc3ncccn23)cc(OC)c1OC`?
Answer: GI50 [1]: 4350 nM; GI50 [2]: 1630 nM; GI50 [3]: 1610 nM; GI50 [4]: 2990 nM; GI50 [5]: 2010 nM; GI50 [6]: 1800 nM; GI50 [7]: 2090 nM; GI50 [8]: 2750 nM; GI50 [9]: 1570 nM; GI50 [10]: 2840 nM; GI50 [11]: 2160 nM; GI50 [12]: 2360 nM; GI50 [13]: 2380 nM; GI50 [14]: 3680 nM; GI50 [15]: 2220 nM; GI50 [16]: 1740 nM; GI50 [17]: 3730 nM; inhibition [18]: Active; Activity [19]: 74.16%; Activity [20]: 21.89%; Activity [21]: 3.95%; GI50 [22]: 4050 nM; GI50 [23]: 3330 nM; GI50 [24]: 3030 nM; GI50 [25]: 3750 nM; GI50 [26]: 2280 nM; GI50 [27]: 2560 nM; GI50 [28]: 3340 nM; GI50 [29]: 2710 nM; GI50 [30]: 3120 nM; GI50 [31]: 1770 nM; GI50 [32]: 3080 nM; GI50 [33]: 1580 nM; GI50 [34]: 2070 nM; GI50 [35]: 1590 nM; GI50 [36]: 2870 nM; GI50 [37]: 1700 nM; GI50 [38]: 1770 nM; GI50 [39]: 1530 nM; GI50 [40]: 2110 nM; GI50 [41]: 2520 nM; GI50 [42]: 1690 nM; GI50 [43]: 2090 nM; GI50 [44]: 1900 nM; GI50 [45]: 2430 nM; GI50 [46]: 1550 nM; GI50 [47]: 3120 nM; GI50 [48]: 2390 nM; GI50 [49]: 1680 nM; GI50 [50]: 1930 nM; GI50 [51]: 1400 nM; GI50 [52]: 2930 nM; GI50 [53]: 2460 nM; GI50 [54]: 2690 nM; GI50 [55]: 1580 nM; GI50 [56]: 2640 nM; GI50 [57]: 2760 nM; GI50 [58]: 2200 nM; GI50 [59]: 2210 nM; GI50 [60]: 2060 nM; GI50 [61]: 1440 nM; GI50 [62]: 2260 nM; GI50 [63]: 3250 nM; GI50 [64]: 730 nM
